Like-named read-outs stand apart in the source and are kept apart here.
Tests used:
Assay type in all cases: cell-based, human
MYB mRNA = assay: RT-qPCR splicing assay, MYB canonical (CJ) and alternative (AJ) junction mRNA; conditions: Homo sapiens; for AC50: read-out: MYB AJ (AC50, increase in AJ mRNA)
Procedure, shortened: (§1)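 Cells: A673 (DMEM/10% FBS, plated 24 h before) or K562 (IMDM/10% FBS). Dosing: 11-pt 3-fold series, 10 uM top final, ≤0.25% DMSO, 24 h, 37 °C/5% CO2. Readout: RT-qPCR of CJ and AJ junctions, housekeeper-normalized, RQ = 2^(-ΔΔCt) vs DMSO.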

HTT mRNA = assay: RT-qPCR splicing assay, HTT canonical (CJ) and alternative (AJ) junction mRNA; conditions: Homo sapiens; for AC50: read-out: HTT AJ (AC50, increase in AJ mRNA)
Procedure, shortened: as §1

Target C mRNA = assay: RT-qPCR splicing assay panel, Target C canonical junction (CJ) mRNA; conditions: Homo sapiens
Procedure, shortened: as §1

SMN2 mRNA = assay: RT-qPCR splicing assay panel, SMN2 canonical junction (CJ) mRNA; conditions: Homo sapiens
Procedure, shortened: as §1

[1] = 24 h, Table 3A, A673 or K562 cells, 24 h treatment
[2] = 24 h, Table 3A, A673 or K562 cells, 24 h treatment, read-out: MYB CJ (IC50, decrease in CJ mRNA)
[3] = canonical junction (CJ) mRNA, RT-qPCR panel, Table 4A, read-out: MYB, decrease in CJ mRNA levels, IC50
[4] = 24 h, Table 3A, A673 or K562 cells, 24 h treatment, read-out: HTT CJ (IC50, decrease in CJ mRNA)
[5] = canonical junction (CJ) mRNA, RT-qPCR panel, Table 4A, read-out: HTT, decrease in CJ mRNA levels, IC50
[6] = canonical junction (CJ) mRNA, RT-qPCR panel, Table 4A, read-out: Target C, decrease in CJ mRNA levels, IC50
[7] = canonical junction (CJ) mRNA, RT-qPCR panel, Table 4A, read-out: SMN2, decrease in CJ mRNA levels, IC50
[8] = 24 h, Table 3B, A673 or K562 cells, 24 h treatment
[9] = 24 h, Table 3B, A673 or K562 cells, 24 h treatment, read-out: MYB CJ (IC50, decrease in CJ mRNA)
[10] = Table 4B, gene panel, read-out: MYB (IC50, decrease in CJ mRNA levels)
[11] = 24 h, Table 3B, A673 or K562 cells, 24 h treatment, read-out: HTT CJ (IC50, decrease in CJ mRNA)
[12] = Table 4B, gene panel, read-out: HTT (IC50, decrease in CJ mRNA levels)
[13] = Table 4B, gene panel, read-out: Target C (IC50, decrease in CJ mRNA levels)
[14] = Table 4B, gene panel, read-out: SMN2 (IC50, decrease in CJ mRNA levels)

Structure (SMILES)	AC50 (MYB mRNA; [1]) [nM]	IC50 (MYB mRNA; [2]) [nM]	IC50 (MYB mRNA; [3]) [nM]	AC50 (HTT mRNA; [1]) [nM]	IC50 (HTT mRNA; [4]) [nM]	IC50 (HTT mRNA; [5]) [nM]	IC50 (Target C mRNA; [6]) [nM]	IC50 (SMN2 mRNA; [7]) [nM]	AC50 (MYB mRNA; [8]) [nM]	IC50 (MYB mRNA; [9]) [nM]	IC50 (MYB mRNA; [10]) [nM]	AC50 (HTT mRNA; [8]) [nM]	IC50 (HTT mRNA; [11]) [nM]	IC50 (HTT mRNA; [12]) [nM]	IC50 (Target C mRNA; [13]) [nM]	IC50 (SMN2 mRNA; [14]) [nM]
Oc1cc(-n2cnnc2)c(F)cc1-c1ccc(N2CCC(NC3CCC3)C2)nn1 (centres unmarked) [Compound 315]	> 10000	> 10000	> 10000	1000 to 10000	1000 to 10000	1000 to 10000	> 10000	1000 to 10000	–	–	–	–	–	–	–	–
Cc1cn(-c2cc(O)c(-c3ccc(N4CC[C@@H](NC5CCC5)C4)nn3)cc2F)cn1 [Compound 226, 2-{6-[(3R)-3-(cyclobutylamino)pyrrolidin-1-yl]pyridazin-3-yl}-4-fluoro-5-(4-methylimidazol-1-yl)phenol]	100 to 1000	100 to 1000	100 to 1000	100 to 1000	< 100	< 100	100 to 1000	< 100	–	–	–	–	–	–	–	–
COc1cc(-c2ccc(-c3ccc(N4CC[C@H](N[C@H]5C[C@H](F)C5)C4)nn3)c(O)c2)ncn1 [Compound 426]	1000 to 10000	1000 to 10000	1000 to 10000	100 to 1000	100 to 1000	100 to 1000	1000 to 10000	100 to 1000	–	–	–	–	–	–	–	–
Cc1ncc(-c2ccc(-c3ccc(N4CCC(NC5CCC5)C4)nn3)cc2F)s1 (centres unmarked) [Compound 344]	1000 to 10000	1000 to 10000	1000 to 10000	1000 to 10000	1000 to 10000	1000 to 10000	1000 to 10000	100 to 1000	–	–	–	–	–	–	–	–
COc1cc(-c2ccc(-c3ccc(N4CC[C@H](N(CCF)C5CCC5)C4)nn3)c(O)c2)cnn1 [Compound 303]	> 10000	> 10000	> 10000	100 to 1000	100 to 1000	100 to 1000	> 10000	100 to 1000	–	–	–	–	–	–	–	–
Oc1cc(-n2cnnc2)ccc1-c1ccc(N2CCC(NC3CCC3)C2)nn1 (centres unmarked) [Compound 345]	1000 to 10000	1000 to 10000	1000 to 10000	1000 to 10000	1000 to 10000	1000 to 10000	> 10000	100 to 1000	–	–	–	–	–	–	–	–
COc1cc(-c2ccc(-c3ccc(N4CC[C@@](C)(NC5CCC5)C4)nn3)c(O)c2)ncn1 [Compound 366, 2-{6-[(3R)-3-(cyclobutylamino)-3-methylpyrrolidin-1-yl]pyridazin-3-yl}-5-(6-methoxypyrimidin-4-yl)phenol]	100 to 1000	100 to 1000	100 to 1000	< 100	< 100	< 100	100 to 1000	< 100	–	–	–	–	–	–	–	–
Oc1cc(-c2cn[nH]c2)ccc1-c1ccc(N2CC[C@@H](NC3CCC3)C2)nn1 [Compound 114, 2-{6-[(3R)-3-(cyclobutylamino)pyrrolidin-1-yl]pyridazin-3-yl}-5-(1H-pyrazol-4-yl)phenol]	100 to 1000	100 to 1000	100 to 1000	< 100	< 100	< 100	100 to 1000	< 100	–	–	–	–	–	–	–	–
COc1cc(-c2cc(O)c(-c3ccc(N4CC[C@H](NC(C)(C)C)C4)nn3)cc2F)cnn1 [Compound 211, 2-{6-[(3S)-3-(tert-butylamino)pyrrolidin-1-yl]pyridazin-3-yl}-4-fluoro-5-(6-methoxypyridazin-4-yl)phenol]	1000 to 10000	1000 to 10000	1000 to 10000	100 to 1000	100 to 1000	100 to 1000	100 to 1000	< 100	–	–	–	–	–	–	–	–
Cc1nc2ccc(-c3ccc(N4CCC(NC(C)(C)C)C4)nn3)nc2o1 (centres unmarked) [Compound 832]	–	–	–	–	–	–	–	–	100 to 1000	100 to 1000	100 to 1000	100 to 1000	< 100	< 100	100 to 1000	< 100
COc1cc(-c2cc(O)c(-c3ccc(N4CC[C@@H](NC5CC5)C4)nn3)cc2F)cnn1 [Compound 213, 2-{6-[(3R)-3-(cyclopropylamino)pyrrolidin-1-yl]pyridazin-3-yl}-4-fluoro-5-(6-methoxypyridazin-4-yl)phenol]	1000 to 10000	100 to 1000	100 to 1000	100 to 1000	100 to 1000	100 to 1000	1000 to 10000	< 100	–	–	–	–	–	–	–	–
Cc1nc2cc(O)c(-c3ccc(N4CC[C@H](NC(C)(C)C)C4)nn3)cc2o1 [Compound 813]	–	–	–	–	–	–	–	–	1000 to 10000	1000 to 10000	1000 to 10000	1000 to 10000	100 to 1000	100 to 1000	1000 to 10000	100 to 1000
CC1(C)CC(Oc2ccc(-c3cc(F)c(-c4cn[nH]c4)cc3O)nn2)CC(C)(C)N1 [Compound 361]	< 100	100 to 1000	100 to 1000	< 100	< 100	< 100	< 100	< 100	–	–	–	–	–	–	–	–
COc1cc(-c2ccc(-c3ccc(N4CC[C@@H](NC5(C)CCC5)C4)nn3)c(O)c2)cnn1 [Compound 287, (R)-5-(6-methoxypyridazin-4-yl)-2-(6-(3-((1-methylcyclobutyl)amino)pyrrolidin-1-yl)pyridazin-3-yl)phenol]	< 100	< 100	< 100	< 100	< 100	< 100	< 100	< 100	–	–	–	–	–	–	–	–
COc1cc(-c2cc(O)c(-c3ccc(N4CC[C@H](NC5CC5)C4)nn3)cc2F)cnn1 [Compound 214, 2-{6-[(3S)-3-(cyclopropylamino)pyrrolidin-1-yl]pyridazin-3-yl}-4-fluoro-5-(6-methoxypyridazin-4-yl)phenol]	100 to 1000	100 to 1000	100 to 1000	< 100	< 100	< 100	100 to 1000	< 100	–	–	–	–	–	–	–	–
Cc1cc(-c2ccc(-c3ccc(N4CC[C@@H](NC5CCC5)C4)nn3)c(O)c2)cnn1 [Compound 292, 2-{6-[(3R)-3-(cyclobutylamino)pyrrolidin-1-yl]pyridazin-3-yl}-5-(6-methylpyridazin-4-yl)phenol]	> 10000	> 10000	> 10000	> 10000	> 10000	> 10000	> 10000	1000 to 10000	–	–	–	–	–	–	–	–
